Data taken from PubChem BioAssay (NCI).
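Results reflect a 48-hour exposure of cells in 96-well plates to compound at five concentrations. GI50: concentration for 50% inhibition of growth. TGI: total growth inhibition.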

What was measured:
Assay in all cases: NCI tumour cell line growth inhibition, 48 h
786-0 renal = test system: 786-0 renal
EKVX NSCLC = test system: EKVX NSCLC
KM12 colon = test system: KM12 colon
MDA-MB-435 = test system: MDA-MB-435
MOLT-4 leukemia = test system: MOLT-4 leukemia
NCI-H522 lung = test system: NCI-H522 lung
OVCAR-3 ovarian = test system: OVCAR-3 ovarian
OVCAR-8 ovarian = test system: OVCAR-8 ovarian
SF-268 CNS = test system: SF-268 CNS
CCRF-CEM leukemia = test system: CCRF-CEM leukemia

Row | SMILES | GI50 (786-0 renal) | TGI (786-0 renal) | GI50 (EKVX NSCLC) | TGI (EKVX NSCLC) | GI50 (KM12 colon) | TGI (KM12 colon) | GI50 (MDA-MB-435) | TGI (MDA-MB-435) | GI50 (MOLT-4 leukemia) | TGI (MOLT-4 leukemia) | GI50 (NCI-H522 lung) | TGI (NCI-H522 lung) | GI50 (OVCAR-3 ovarian) | TGI (OVCAR-3 ovarian) | GI50 (OVCAR-8 ovarian) | TGI (OVCAR-8 ovarian) | GI50 (SF-268 CNS) | TGI (SF-268 CNS) | GI50 (CCRF-CEM leukemia) | TGI (CCRF-CEM leukemia)
1 | COc1ncnc(S(=O)(=O)c2ccc(N=C3C(=O)N(CN4CCN(c5cc6c(cc5F)c(=O)c(C(=O)O)cn6C5CC5)CC4)c4ccc(Cl)cc43)cc2)c1OC | 33.7 µM | > 50 µM | 1.24 µM | > 50 µM | 24.2 µM | > 50 µM | > 50 µM | > 50 µM | 24.9 µM | > 50 µM | > 50 µM | > 50 µM | > 50 µM | > 50 µM | 32.9 µM | > 50 µM | 49 µM | > 50 µM |  | 
2 | Cc1c(-c2ccnc(N)n2)c2c(n1Cc1ccccc1)C(=O)c1ccccc1C2=O | 5.02 µM | 71 µM | 7.11 µM | 41.2 µM | 8.82 µM | 30.4 µM | 4.84 µM | 24.2 µM |  |  | > 100 µM | > 100 µM | 2.83 µM | 21.3 µM |  |  |  |  | > 100 µM | > 100 µM
3 | C=CC(=O)Nc1cc(N2CCN(CC)CC2)ccc1Nc1cc(N(C)C(=O)Nc2c(Cl)c(OC)cc(OC)c2Cl)ncn1 | 2.97 µM | 12.1 µM | 12.4 µM | 35.9 µM | 3.09 µM | 10.3 µM | 3.47 µM | 14.4 µM | 3.01 µM | 13.4 µM | 4.77 µM | 20.3 µM | 3.49 µM | 15.4 µM | 4.38 µM | 18.1 µM | 5.53 µM | 27.7 µM | 3.02 µM | 11.2 µM
4 | COc1cc2c(cc1O)CC1c3c(cc(O)c(OC)c3-2)CCN1C (stereo unspecified) |  | > 100 µM |  | > 100 µM |  | > 100 µM |  | > 100 µM |  | > 100 µM |  | > 100 µM |  | > 100 µM |  | > 100 µM |  | > 100 µM |  | > 100 µM
5 | CC1=Cc2ccc(C)cc2C(=O)C1=O |  | 3.81 µM |  | 42.3 µM |  | 34.5 µM |  | 4.27 µM |  | 6.13 µM |  | 4.15 µM |  | 49.4 µM |  | > 73.8 µM |  | 27.5 µM |  | 1.98 µM
6 | CC(C)Cc1ccc(C(C)CC2=CCC(CN(C)C)C2=O)cc1 (stereo unspecified) |  | 3.34 µM |  | 33.9 µM |  | 10.7 µM |  | 20.5 µM |  | 5.8 µM |  | 8.84 µM |  | 24.9 µM |  | 20.3 µM |  | 30 µM |  | 12.6 µM
7 | COc1ccc(C(O)c2cc3c(N)c(C(=O)Nc4cccc(Cl)c4)sc3nc2C)cc1 (stereo unspecified) | 1.67 µM | > 39.6 µM | 1.88 µM | > 86.9 µM | 1.1 µM | > 33.4 µM | 0.0371 µM | 0.262 µM | 1.54 µM | > 43.3 µM | 1.05 µM | > 41.9 µM | 0.843 µM | 2.34 µM | 1.45 µM | > 47.8 µM | 2.79 µM | > 46.2 µM | 1.13 µM | > 100 µM
8 | C1CC2CN(CCCN3CCOCC3)C(C1)O2 (stereo unspecified) |  | > 100 µM |  | > 100 µM |  | > 100 µM |  | > 100 µM |  | > 100 µM |  | > 100 µM |  | > 100 µM |  | > 100 µM |  | > 100 µM |  | 
